Source: ChEMBL document CHEMBL4602605, “Fluoroquinolones structural and medicinal developments (2013-2018): Where are we now?” (Bioorg Med Chem, 2019)
Converted amounts (≈) assume the structure as drawn.

Assays:
[1] = test system: Mycolicibacterium smegmatis; assay: Antimicrobial activity against Mycobacterium smegmatis incubated for 30 to 32 hrs by spectrophotometry based assay; assay type: functional
PC-3 = assay: Growth inhibition of human PC3 cells by MTT assay; assay type: functional, cell-based
Aspergillus clavatus = assay: Antifungal activity against Aspergillus clavatus after overnight incubation by agar well diffusion method; assay type: functional
Candida albicans = assay: Antifungal activity against Candida albicans after overnight incubation by agar well diffusion method; assay type: functional
Escherichia coli [2] = assay: Antimicrobial activity against Escherichia coli ATCC 25922 by CLSI method; assay type: functional
Staphylococcus aureus [3] = assay: Antimicrobial activity against Staphylococcus aureus ATCC 25923 by CLSI method; assay type: functional
Escherichia coli [4] = assay: Antimicrobial activity against Escherichia coli ATCC 9637 incubated for 24 hrs by CLSI-based broth microdilution method; assay type: functional; settings: W ATCC 9637, 24 h
Pseudomonas aeruginosa [5] = assay: Antimicrobial activity against Pseudomonas aeruginosa ATCC BAA-427 incubated for 24 hrs by CLSI-based broth microdilution method; assay type: functional; settings: ATCC BAA-427, 24 h
Staphylococcus aureus [6] = assay: Antimicrobial activity against methicillin-resistant Staphylococcus aureus ATCC 700699 incubated for 24 hrs by CLSI-based broth microdilution method; assay type: functional; settings: ATCC 700699, 24 h
Staphylococcus aureus [7] = assay: Antimicrobial activity against gentamicin-resistant Staphylococcus aureus ATCC 33592 incubated for 24 hrs by CLSI-based broth microdilution method; assay type: functional; settings: ATCC 33592, 24 h
Klebsiella pneumoniae [8] = assay: Antimicrobial activity against Klebsiella pneumoniae ATCC 27736 incubated for 24 hrs by CLSI-based broth microdilution method; assay type: functional; settings: ATCC 27736, 24 h
Staphylococcus aureus [9] = assay: Antimicrobial activity against Staphylococcus aureus ATCC 29213 incubated for 24 hrs by CLSI-based dilution method; assay type: functional; settings: ATCC 29213, 24 h
Staphylococcus aureus [10] = assay: Antimicrobial activity against Staphylococcus aureus ATCC 25923 incubated for 24 hrs by CLSI-based dilution method; assay type: functional; settings: ATCC 25923, 24 h
Enterococcus faecalis [11] = assay: Antimicrobial activity against Enterococcus faecalis ATCC 29212 incubated for 24 hrs by serial dilution method; assay type: functional; settings: ATCC 29212, 24 h
Staphylococcus aureus [12] = assay: Antimicrobial activity against methicillin-susceptible Staphylococcus aureus ATCC 29213 incubated for 24 hrs by serial dilution method; assay type: functional; settings: ATCC 29213, 24 h
Staphylococcus aureus [13] = assay: Antimicrobial activity against methicillin-resistant Staphylococcus aureus ATCC 33591 incubated for 24 hrs by serial dilution method; assay type: functional; settings: ATCC 33591, 24 h
Escherichia coli [14] = assay: Antimicrobial activity against Escherichia coli ATCC 35218 incubated for 24 hrs by serial dilution method; assay type: functional; settings: ATCC 35218, 24 h
Klebsiella pneumoniae [15] = assay: Antimicrobial activity against Klebsiella pneumoniae ATCC 35657 incubated for 24 hrs by serial dilution method; assay type: functional; settings: ATCC 35657, 24 h
Moraxella catarrhalis = assay: Antimicrobial activity against Moraxella catarrhalis ATCC 25238 incubated for 24 hrs by serial dilution method; assay type: functional; settings: ATCC 25238, 24 h
A549 = assay: Growth inhibition of human A549 cells at 10 uM incubated for 48 hrs by MTT assay relative to control; assay type: functional; settings: A549, 48 h, read-out: GI
HCT-116 = assay: Growth inhibition of human HCT116 cells at 10 uM incubated for 48 hrs by MTT assay relative to control; assay type: functional; settings: HCT-116, 48 h, read-out: GI
HeLa = assay: Growth inhibition of human HeLa cells at 10 uM incubated for 48 hrs by MTT assay relative to control; assay type: functional; settings: read-out: GI
PANC-1 = assay: Growth inhibition of human PANC1 cells at 10 uM incubated for 48 hrs by MTT assay; assay type: functional; settings: PANC-1, 48 h, read-out: GI
Pseudomonas aeruginosa [16] = assay: Antimicrobial activity against Pseudomonas aeruginosa ATCC 43288 incubated for 18 to 24 hrs by microbroth dilution method; assay type: functional
Staphylococcus aureus [17] = assay: Antimicrobial activity against Staphylococcus aureus ATCC 25923 incubated for 18 to 24 hrs by microbroth dilution method; assay type: functional
Enterococcus faecalis [18] = assay: Antimicrobial activity against Enterococcus faecalis ATCC 29212 incubated for 18 to 24 hrs by microbroth dilution method; assay type: functional
Bacillus cereus = assay: Antimicrobial activity against Bacillus cereus 709 Roma incubated for 18 to 24 hrs by microbroth dilution method; assay type: functional
[19] = test system: Mycolicibacterium smegmatis; assay: Antimicrobial activity against Mycobacterium smegmatis ATCC 607 incubated for 48 to 72 hrs by microbroth dilution method; assay type: functional
Escherichia coli [20] = assay: Antimicrobial activity against Escherichia coli ATCC 25922 incubated for 18 to 24 hrs by microbroth dilution method; assay type: functional
Escherichia coli [21] = assay: Antimicrobial activity against penicillin-resistant Escherichia coli at < 1 ug/ml relative to control; assay type: functional
[22] = test system: Yersinia pseudotuberculosis; assay: Antimicrobial activity against Yersinia pseudotuberculosis ATCC 911 incubated for 18 to 24 hrs by microbroth dilution method; assay type: functional

## COc1cc(/C=N\NC(=O)c2cn(C3CC3)c3c(OC)c(N4CCN(C)CC4)c(F)cc3c2=O)cc(OC)c1OC
[1]
  MIC: 81.2 µM (≈ 46.1 µg/mL)
PC-3
  IC50: 8.5 µg/mL (≈ 15 µM)
Aspergillus clavatus
  inhibition zone (IZ): 13 mm
Candida albicans
  inhibition zone (IZ): 13 mm

## CC(=O)N1CCN(c2cc3c(cc2F)c(=O)c(C(=O)O)cn3C2CC2)CC1
Escherichia coli [2]
  MIC: 0.5 µg/mL (≈ 1.34 µM)
Staphylococcus aureus [3]
  MIC: 0.5 µg/mL (≈ 1.34 µM)

## CCn1cc(C(=O)O)c(=O)c2cc(F)c(-n3cc(CO[C@H]4O[C@H](COC(C)=O)[C@@H](OC(C)=O)[C@H](OC(C)=O)[C@H]4NC(C)=O)nn3)c(F)c21
Escherichia coli [4]
  MIC: 12.5 µg/mL (≈ 18.4 µM)
Pseudomonas aeruginosa [5]
  MIC: > 50 µg/mL
Staphylococcus aureus [6]
  MIC: > 50 µg/mL
Staphylococcus aureus [7]
  MIC: 6.25 µg/mL (≈ 9.2 µM)
Klebsiella pneumoniae [8]
  MIC: 6.25 µg/mL (≈ 9.2 µM)
Staphylococcus aureus [9]
  MIC: 6.25 µg/mL (≈ 9.2 µM)
Staphylococcus aureus [10]
  MIC: 6.25 µg/mL (≈ 9.2 µM)

## CCn1cc(C(=O)O)c(=O)c2cc(F)c(-n3cc(CO[C@H]4OC[C@@H](OC(C)=O)[C@@H](OC(C)=O)[C@H]4OC(C)=O)nn3)c(F)c21
Escherichia coli [4]
  MIC: 6.25 µg/mL (≈ 10.3 µM)
Pseudomonas aeruginosa [5]
  MIC: > 50 µg/mL
Staphylococcus aureus [6]
  MIC: > 50 µg/mL
Staphylococcus aureus [7]
  MIC: 3.12 µg/mL (≈ 5.13 µM)
Klebsiella pneumoniae [8]
  MIC: 3.12 µg/mL (≈ 5.13 µM)
Staphylococcus aureus [9]
  MIC: 3.12 µg/mL (≈ 5.13 µM)
Staphylococcus aureus [10]
  MIC: 3.12 µg/mL (≈ 5.13 µM)

## O=C(NO)c1cn(C2CC2)c2cc(-n3cc(CN4CCOCC4)nn3)c(F)cc2c1=O
Enterococcus faecalis [11]
  MIC: > 64 µg/mL
Staphylococcus aureus [12]
  MIC: > 64 µg/mL
Staphylococcus aureus [13]
  MIC: > 64 µg/mL
Escherichia coli [14]
  MIC: 8 µg/mL (≈ 18.7 µM)
Klebsiella pneumoniae [15]
  MIC: 4 µg/mL (≈ 9.34 µM)
Moraxella catarrhalis
  MIC: 8 µg/mL (≈ 18.7 µM)
A549
  inhibition of growth at 10 µM: 15%
HCT-116
  inhibition of growth at 10 µM: 15%
HeLa
  inhibition of growth at 10 µM: 20%
PANC-1
  inhibition of growth at 10 µM: 13%

## CCn1cc(C(=O)O)c(=O)c2cc(F)c(N3CCN(Cn4nc(CN5CCN(c6ccc([N+](=O)[O-])cc6)CC5)n(Cc5ccccc5)c4=O)CC3)cc21
Pseudomonas aeruginosa [16]
  MIC: 0.24 to 0.5 µg/mL (≈ 0.331 to 0.689 µM)
Staphylococcus aureus [17]
  MIC: 0.24 to 0.25 µg/mL (≈ 0.331 to 0.344 µM)
Enterococcus faecalis [18]
  MIC: 0.48 to 0.5 µg/mL (≈ 0.661 to 0.689 µM)
Bacillus cereus
  MIC: 0.24 to 0.25 µg/mL (≈ 0.331 to 0.344 µM)
[19]
  MIC: 0.244 to 0.99 µg/mL (≈ 0.336 to 1.36 µM)
Escherichia coli [20]
  MIC: 0.25 to 0.99 µg/mL (≈ 0.344 to 1.36 µM)

## CCCCCCCCOC(=O)c1cn(C2CC2)c2cc(N3CCNCC3)c(F)cc2c1=O
Escherichia coli [21]
  inhibition (INH): >60%

## CC(C)NCc1cn(-c2cc3c(cc2F)c(=O)c(C(=O)NO)cn3C2CC2)nn1
Enterococcus faecalis [11]
  MIC: > 64 µg/mL
Staphylococcus aureus [12]
  MIC: > 64 µg/mL
Staphylococcus aureus [13]
  MIC: > 64 µg/mL
Escherichia coli [14]
  MIC: > 64 µg/mL
Klebsiella pneumoniae [15]
  MIC: > 64 µg/mL
Moraxella catarrhalis
  MIC: > 64 µg/mL
A549
  inhibition of growth at 10 µM: 35%
HCT-116
  inhibition of growth at 10 µM: 30%
HeLa
  inhibition of growth at 10 µM: 30%
PANC-1
  inhibition of growth at 10 µM: 15%

## CN(C)Cc1cn(-c2cc3c(cc2F)c(=O)c(C(=O)NO)cn3C2CC2)nn1
Enterococcus faecalis [11]
  MIC: > 64 µg/mL
Staphylococcus aureus [12]
  MIC: > 64 µg/mL
Staphylococcus aureus [13]
  MIC: > 64 µg/mL
Escherichia coli [14]
  MIC: > 64 µg/mL
Klebsiella pneumoniae [15]
  MIC: > 64 µg/mL
Moraxella catarrhalis
  MIC: > 64 µg/mL
A549
  inhibition of growth at 10 µM: 30%
HCT-116
  inhibition of growth at 10 µM: 15%
HeLa
  inhibition of growth at 10 µM: 23%
PANC-1
  inhibition of growth at 10 µM: 20%

## CCn1cc(C(=O)O)c(=O)c2cc(F)c(N3CCN(Cn4nc(CN5CCN(c6ccc([N+](=O)[O-])cc6)CC5)oc4=S)CC3)cc21
Pseudomonas aeruginosa [16]
  MIC: < 0.25 µg/mL
[22]
  MIC: < 0.25 µg/mL
Staphylococcus aureus [17]
  MIC: 0.25 µg/mL (≈ 0.383 µM)
Enterococcus faecalis [18]
  MIC: < 0.25 µg/mL
Bacillus cereus
  MIC: < 0.25 µg/mL
[19]
  MIC: 1 µg/mL (≈ 1.53 µM)
Escherichia coli [20]
  MIC: 0.03 µg/mL (≈ 0.046 µM)

## CCn1cc(C(=O)O)c(=O)c2cc(F)c(-n3cc(CO[C@H]4OC[C@@H](OC(C)=O)[C@H](OC(C)=O)[C@H]4OC(C)=O)nn3)c(F)c21
Escherichia coli [4]
  MIC: 12.5 µg/mL (≈ 20.5 µM)
Pseudomonas aeruginosa [5]
  MIC: > 50 µg/mL
Staphylococcus aureus [6]
  MIC: > 50 µg/mL
Staphylococcus aureus [7]
  MIC: 12.5 µg/mL (≈ 20.5 µM)
Klebsiella pneumoniae [8]
  MIC: 25 µg/mL (≈ 41.1 µM)
Staphylococcus aureus [9]
  MIC: 12.5 µg/mL (≈ 20.5 µM)
Staphylococcus aureus [10]
  MIC: 12.5 µg/mL (≈ 20.5 µM)

## CCn1cc(C(=O)O)c(=O)c2cc(F)c(-n3cc(CO[C@H]4OC[C@@H](OC(C)=O)[C@@H](OC(C)=O)[C@@H]4OC(C)=O)nn3)c(F)c21
Escherichia coli [4]
  MIC: 12.5 µg/mL (≈ 20.5 µM)
Pseudomonas aeruginosa [5]
  MIC: > 50 µg/mL
Staphylococcus aureus [6]
  MIC: > 50 µg/mL
Staphylococcus aureus [7]
  MIC: 6.25 µg/mL (≈ 10.3 µM)
Klebsiella pneumoniae [8]
  MIC: 6.25 µg/mL (≈ 10.3 µM)
Staphylococcus aureus [9]
  MIC: 6.25 µg/mL (≈ 10.3 µM)
Staphylococcus aureus [10]
  MIC: 6.25 µg/mL (≈ 10.3 µM)

## CCCOC(=O)c1cn(C2CC2)c2cc(N3CCNCC3)c(F)cc2c1=O
Escherichia coli [21]
  inhibition (INH): >60%

## CCn1cc(C(=O)O)c(=O)c2cc(F)c(N3CCN(Cn4nc(CN5CCN(c6ccc([N+](=O)[O-])cc6)CC5)n(-c5ccc(F)cc5)c4=S)CC3)cc21
Pseudomonas aeruginosa [16]
  MIC: 0.48 µg/mL (≈ 0.644 µM)
[22]
  MIC: 0.24 µg/mL (≈ 0.322 µM)
Staphylococcus aureus [17]
  MIC: 0.48 µg/mL (≈ 0.644 µM)
Enterococcus faecalis [18]
  MIC: 0.25 µg/mL (≈ 0.335 µM)
Bacillus cereus
  MIC: 0.24 µg/mL (≈ 0.322 µM)
[19]
  MIC: 0.244 µg/mL (≈ 0.327 µM)
Escherichia coli [20]
  MIC: < 0.03 µg/mL

## CCn1cc(C(=O)O)c(=O)c2cc(F)c(-n3cc(CO[C@H]4O[C@H](COC(C)=O)[C@@H](OC(C)=O)[C@H](OC(C)=O)[C@@H]4OC(C)=O)nn3)c(F)c21
Escherichia coli [4]
  MIC: 50 µg/mL (≈ 73.5 µM)
Pseudomonas aeruginosa [5]
  MIC: > 50 µg/mL
Staphylococcus aureus [6]
  MIC: > 50 µg/mL
Staphylococcus aureus [7]
  MIC: 12.5 µg/mL (≈ 18.4 µM)
Klebsiella pneumoniae [8]
  MIC: 25 µg/mL (≈ 36.7 µM)
Staphylococcus aureus [9]
  MIC: 12.5 µg/mL (≈ 18.4 µM)
Staphylococcus aureus [10]
  MIC: 12.5 µg/mL (≈ 18.4 µM)
